Test results: paper PMC12299903 (Pharmaceuticals, 2025)
≈ marks a conversion by molar mass, not a printed value. Entries after “also recorded” stand apart in the source; their conditions may differ. One block for each compound: values may come before it. Where a SMILES comes first, the peptide text is derived from it. Where no end group is shown, it is not given here.

Legend:
[1] = system: Pseudomonas aeruginosa (ATCC27853); test: Antibacterial assay, MIC (broth microdilution, resazurin); type: cell-based; conditions: Mueller-Hinton broth, CLSI M07-A9, 1:2 serial dilution from 128.5 μM, 37 °C 20 h, resazurin read-out, triplicate; conjugates dosed as peptide concentration
Experimental: (§1) The peptide Lun-1 and the peptide-conjugated nanoparticles (Lun-EN and Lun-EC) were investigated against […] bacterial strains—Pseudomonas aeruginosa, Staphylococcus aureus, Acinetobacter, Escherichia coli, and Streptococcus agalactiae, all from American Type Culture Collection (Manassas, VA, USA). Details can be found in the SM. […]
(§2) phase at 35 °C and subsequently transferred to Mueller-Hinton broth according to the guidelines established by the M07 -A9 CLSI. Methods for the dilution antimicrobial susceptibility tests for b acteria that grow aerobically were from the Approved Standard—Ninth Edition. CLSI document M07 -A9. Wayne, PA: Clinical and Laboratory Standards Institute; 2012. Bacterial suspensions were adjusted to the turbidity equivalent to 0.5 McFarland standard ([…]), by spectrophotometric measurement at 625 nm (Bel Photonics S2000 UV, São Paulo, Brazil).
(§3) The suspension was then diluted 1:20, and 50 μL aliquots were distributed into 96-well flat-bottom microplates (Nümbrecht, Germany).
(§4) Chloramphenicol (30 μg·mL⁻¹; 92.8 μM) was used as standard drug and served as positive control for growth bacterial inhibition. Wells containing 50 μL of bacterial inoculum and 50 μL of sterile culture medium were used as negative controls. Free peptides were tested at a maximum concentration of 128.5 μM and diluted via serial dilution (1:2) up to seven times in Mueller–Hinton broth. For the nanoparticle– peptide conjugations concentration s were adjusted according to the degree of functionalization to ensure accurate dosing of the active peptide component.
(§5) Plates were incubated at 37 °C for 20 hours. After incubation, 30 μL of a 0.01% (w/v) resazurin solution (10-oxido -7 -oxophenoxazin-10 -ium -3 -olate; Sigma -Aldrich, St. Louis, MO, USA) was added to each well. Plates were protected from light and incubated for an additional 4 hours to allow colorimetric development. The tests whose bacteria did not develop a pink color after incubation (maintaining the blue coloration) were […]

[2] = system: Streptococcus agalactiae (ATCC 29313); test: as above; type: cell-based; conditions: Mueller-Hinton broth, CLSI M07-A9, 1:2 serial dilution from 128.5 μM, 37 °C 20 h, resazurin read-out, triplicate; conjugates dosed as peptide concentration
Experimental: as §1, §2, §3, §4, §5

[3] = system: Staphylococcus aureus (ATCC29213); test: as above; type: cell-based; conditions: Mueller-Hinton broth, CLSI M07-A9, 1:2 serial dilution from 128.5 μM, 37 °C 20 h, resazurin read-out, triplicate; conjugates dosed as peptide concentration
Experimental: as §1, §2, §3, §4, §5

[4] = system: Acinetobacter (ATCC17978); test: as above; type: cell-based; conditions: Mueller-Hinton broth, CLSI M07-A9, 1:2 serial dilution from 128.5 μM, 37 °C 20 h, resazurin read-out, triplicate; conjugates dosed as peptide concentration
Experimental: as §1, §2, §3, §4, §5

[5] = system: Escherichia coli (ATCC25922); test: as above; type: cell-based; conditions: Mueller-Hinton broth, CLSI M07-A9, 1:2 serial dilution from 128.5 μM, 37 °C 20 h, resazurin read-out, triplicate; conjugates dosed as peptide concentration
Experimental: as §1, §2, §3, §4, §5

trypsin [6] = test: Proteolytic degradation by trypsin (HPLC); type: in vitro ADME; conditions: trypsin 1:50 (w/w), 100 µM peptide, 20 mM Tris-HCl pH 8.0, 37 °C, time points 1 min to 4 h; for time to complete degradation by trypsin: HPLC-UV; for time after which progressive degradation (cleavage fragment peaks) is observed with trypsin: HPLC-UV of filtered supernatant
Experimental: Lunatin–AAAE and EAAA–lunatin and their nanoparticle-functionalized counterparts (NP-Lun-EN and NP-Lun-EC) were suspended in 20 mM Tris-HCl buffer (pH 8.0) at a final peptide concentration of 100 µM and exposed to enzymatic digestion with trypsin at 37 °C, using an enzyme-to-substrate ratio of 1:50 (w/w) in a final volume of 1000 µL. Incubation was performed using an AccuBlock™ Digital Dry Bath (Ciencor),. Aliquots of 200 µL were withdrawn at different time points (1 min, 5 min, 10 min, 30 min, 1 h, 2 h, 3 h, and 4 h), and enzymatic activity was quenched by adding 40 µL of 1 M HCl. Samples were centrifugated and supernatant filtered in whatman® alumina anodisc filter discs 0.02 μm pore size, previously injected in a high-performance liquid chromatography system (Varian® ProStar 315 system equipped with a UV detector), using an Agilent AdvanceBio Peptide Mapping column (4.6 × 150 mm), and 50 µL injection loop.

trypsin [7] = test: trypsin in 20 mM Tris-HCl buffer (pH 8.0); conditions: 37 °C, up to 4 h
[8] = Circular dichroism, secondary structure content; type: physicochemical; conditions: 10 mM Tris-HCl, 100 mM NaCl, pH 8.5, 25 µM peptide, 25 °C; for a-helical percentage (CD deconvolution) / β-sheet percentage (CD deconvolution): in buffer, CDpro; for α-helix content (CD deconvolution): in presence of 200 µM POPC:POPG (3:1) LUVs
Experimental: Circular dichroism spectra were recorded using a JASCO J-815 spectrometer (Easton, MD, USA) equipped with a Peltier Jasco model PTC-423 L temperature control system. Spectra were obtained using a quartz cuvette with a 1 cm optical path at a temperature of 25 °C, covering a wavelength range from 190 to 260 nm with eight consecutive scans per sample. The scan speed was set at 100 nm/min and the response time was 4 s. The bandwidth was 1 nm, and ellipticity readings were taken every 0.2 nm. The Lun-1 (25 µM), NP (0.155 mg·mL^−1), NP-Lun-EN (0.17 mg·mL^−1–25 µM of peptide concentration), and NP-Lun-EC (0.18 mg·mL^−1–25 µM of peptide concentration) samples were (corresponding to 25 µM of peptide in NP-Lun-EN and NP-Lun-EC) suspended in 10 mM Tris-HCl buffer solution at pH 8.5 containing 100 mM NaCl or in 200 µM POPC:POPG (3:1, mol:mol) LUVs suspended in the same buffer solution. Data processing and deconvolution calculations to obtain the contents of secondary structures were carried out using the CDpro® program.

[9] = Differential scanning calorimetry of model membranes; conditions: for Tm of LUVs: 3 mM DMPC:DMPG (3:1) LUVs, 10 mM Tris-HCl pH 7.5, pure LUVs 23.1, triplicate, ± 0.2 °C
Experimental: The phase transition profile of 1,2-dimyristoyl-sn-glycero-3-phosphocholine and 1,2-dimyristoyl-sn-glycero-3-phosphocholine/1,2-dimyristoyl-sn-glycero-3-phosphoglycerol (DMPC:DMPG. 3:1, mol:mol) at 3 mM was investigated in the absence and presence of Lun-1, NP, NP-Lun-EN, and NP-Lun-EC at different concentrations (Table S1, using a VP-DSC® microcalorimeter (Malvern® Instruments, Malvern, UK). All mixtures of LUVs and peptide–LUVs were prepared immediately prior to the experiments. The samples were pre-degassed and tested against a 10 mM Tris-HCl buffer (pH 7.5) containing 50 mM NaCl in the reference cell. Buffer-only experiments were also performed in all cells for subsequent background subtraction. Each sample underwent three successive heating scans in the temperature range of 10–35 °C at a heating rate of 1.0 °C.min^−1. Data analyses were performed using Microcal Origin® DSC software version 5.0 (GE HealthCare-Microcal®, Amherst, MA, USA), which was employed to subtract the blank and determine the transition temperature (Tm) and transition enthalpy (DtransH) from the gel phase to the liquid crystalline phase.

Zeta potential = type: physicochemical; conditions: 0.2 mg·mL^−1 in 10 mM Tris-HCl, pH 8.0, 100 mM NaCl; 25 °C; mean of triplicate ± SD
Experimental: Zeta potential and Hydrodynamic Diameter measurements were performed at room temperature (or 25 °C) on a Zetasizer Nano instrument (Malvern® ZS model BI-900, Worcestershire, UK). A 700 µL Malvern® cuvette (model DTS1061) was used for the analysis. The measurements were conducted, utilizing monochromatic light scattering (10 mW Ne laser, λ = 632.4 nm), with the light intensity measured at a 90° angle. Zeta potential (z) were carried out at 0.2 mg·mL^−1 of NP, NP-OH, NP-NH2, NP-Lun-EN, and NP-Lun-EC dispersed in a 10 mM Tris-HCl buffer, pH 8.0, containing 100 mM NaCl.

Staphylococcus aureus = test: Bacterial cell death kinetics (time-kill); type: cell-based; conditions: S. aureus in MH broth, 10^5 CFU·mL^−1, tested at 0.5×, 2×, 4× MIC over 12 h, triplicate
Experimental: Bacterial time-kill assays were performed in triplicate, following the methodology of ref. [43] with minor modifications. Staphylococcus aureus was cultured in Mueller–Hinton (MH) broth at an initial concentration of […] and exposed to free peptides and peptide-functionalized nanobiostructures at concentrations corresponding to 0.5×, 1×, 2×, and 4× the MIC (minimum inhibitory concentration). Samples were collected at defined time intervals: 0, 0.5, 1, 2, 4, 6, 8, 10, and 12 h. Cell viability was assessed using the microdrop method described by Romeiro (2001). Serial dilutions of the bacterial suspensions (10^−1, 10^−2, and 10^−3) were prepared, and 5 µL aliquots from each dilution were plated onto brain–heart infusion (BHI) agar. Plates were incubated for up to 12 h, after which colony counts were performed. The number of colony-forming units (UFC) was calculated by multiplying the colony count by the reciprocal of the dilution factor, and results were expressed as UFC·mL^−1. This approach provided quantitative data on the time–dependent bactericidal activity of both the free peptides and nanoparticle-conjugated formulations.

Compound: CC[C@H](C)[C@H](NC(=O)[C@@H](N)Cc1ccccc1)C(=O)NCC(=O)NCC(=O)N[C@@H](CC(C)C)C(=O)N[C@@H](CC(C)C)C(=O)N[C@@H](CCCCN)C(=O)N[C@H](C(=O)N[C@@H](CC(C)C)C(=O)N[C@H](C(=O)N[C@@H](CO)C(=O)N[C@@H](Cc1ccccc1)C(=O)N[C@@H](Cc1ccccc1)C(N)=O)[C@@H](C)O)[C@@H](C)O [Lun-1, lunatin-1] (H-FIGGLLKTLTSFF-NH2)
- MIC [1]: 32.1 µmol/L (≈ 46.3 µg/mL)
- MIC [2]: 16.0 µmol/L (≈ 23.1 µg/mL)
- MIC [3]: 8.0 µmol/L (≈ 11.5 µg/mL)
- MIC [4]: 32.1 µmol/L (≈ 46.3 µg/mL)
- MIC [5]: 64.2 µmol/L (≈ 92.6 µg/mL)

Compound: CC[C@H](C)[C@H](NC(=O)[C@@H](N)Cc1ccccc1)C(=O)NCC(=O)NCC(=O)N[C@@H](CC(C)C)C(=O)N[C@@H](CC(C)C)C(=O)N[C@@H](CCCCN)C(=O)N[C@H](C(=O)N[C@@H](CC(C)C)C(=O)N[C@H](C(=O)N[C@@H](CO)C(=O)N[C@@H](Cc1ccccc1)C(=O)N[C@@H](Cc1ccccc1)C(=O)N[C@@H](C)C(=O)N[C@@H](C)C(=O)N[C@@H](C)C(=O)N[C@@H](CCC(=O)O)C(N)=O)[C@@H](C)O)[C@@H](C)O [Lun-EC] (H-FIGGLLKTLTSFFAAAE-NH2)
- time to complete degradation by trypsin (trypsin [6]): 10 min

Compound: CC[C@H](C)[C@H](NC(=O)[C@H](Cc1ccccc1)NC(=O)[C@H](C)NC(=O)[C@H](C)NC(=O)[C@H](C)NC(=O)[C@@H](N)CCC(=O)O)C(=O)NCC(=O)NCC(=O)N[C@@H](CC(C)C)C(=O)N[C@@H](CC(C)C)C(=O)N[C@@H](CCCCN)C(=O)N[C@H](C(=O)N[C@@H](CC(C)C)C(=O)N[C@H](C(=O)N[C@@H](CO)C(=O)N[C@@H](Cc1ccccc1)C(=O)N[C@@H](Cc1ccccc1)C(N)=O)[C@@H](C)O)[C@@H](C)O [Lun-EN] (H-EAAAFIGGLLKTLTSFF-NH2)
- time to complete degradation by trypsin (trypsin [6]): 10 min

Compound: EAAAFIGGLLKTLTSFF-NH2 [Lun-EN]
- fragment found (trypsin [7]): TLTSFF, 1 min; also recorded: EAAAFIGGLLK, 1 min

- fragment found (trypsin [7]): TLTSFF, 2 h
Compound: EAAAFIGGLLKTLTSFF-NH2 [NP-Lun-EN]

Compound: FIGGLLKTLTSFFAAAE-NH2 [Lun-EC]
- fragment found (trypsin [7]): FIGGLLK, 1 min; also recorded: TLTSFFAAAE, 1 min

- fragment found (trypsin [7]): FIGGLLK, 2 h
Compound: FIGGLLKTLTSFFAAAE-NH2 [NP-Lun-EC]

Compound: Lun-1-AAAECterm-NP [NP-Lun-EC]
- MIC [1]: 32.1 µmol/L
- MIC [2]: 16.0 µmol/L
- MIC [3]: 16.0 µmol/L
- MIC [4]: 40.0 µmol/L
- MIC [5]: 48.0 µmol/L
- a-helical percentage (CD deconvolution) [8]: 30%
- β-sheet percentage (CD deconvolution) [8]: 40%
- α-helix content (CD deconvolution) [8]: 55%
- Tm of LUVs ([9]; 10 µM peptide): 22.7 °C
- Tm of LUVs ([9]; 25 µM peptide): 22.0/22.0 °C
- Tm of LUVs ([9]; 50 µM peptide): 21.1 °C
- Tm of LUVs ([9]; 100 µM peptide): 19.8 °C
- lowering of transition temperature (DTm) ([9]; DMPC:DMPG (3:1) LUVs, versus pure LUVs): 3.3 °C
- time after which progressive degradation (cleavage fragment peaks) is observed with trypsin (trypsin [6]): 2 h
- ζ-potential (Zeta potential): +5.8 ± 0.8 mV

Compound: NP-NtermEAAA-Lun-1 [NP-Lun-EN]
- MIC [1]: did not exhibit activity
- MIC [2]: 128.5 µmol/L
- MIC [3]: 64.2 µmol/L
- MIC [4]: did not exhibit activity
- MIC [5]: 128.5 µmol/L
- a-helical percentage (CD deconvolution) [8]: 35%
- β-sheet percentage (CD deconvolution) [8]: 45%
- α-helix content (CD deconvolution) [8]: 40%
- Tm of LUVs ([9]; 10 µM peptide): 22.9 °C
- Tm of LUVs ([9]; 25 µM peptide): 22.9 °C
- Tm of LUVs ([9]; 50 µM peptide): 22.9 °C
- Tm of LUVs ([9]; 100 µM peptide): 21.9 °C
- time after which progressive degradation (cleavage fragment peaks) is observed with trypsin (trypsin [6]): 2 h
- concentrations giving sustained reduction in viable cells without regrowth (Staphylococcus aureus): 2 × MIC and 4 × MIC
- ζ-potential (Zeta potential): +6.7 ± 0.9 mV
